US8158606B2, “β-L-2′-deoxynucleosides for the treatment of resistant HBV strains and combination therapies” (priority 2002, dated 2012)
Read-outs that look alike come from different tables or passages of the source.

Tests used:
[1] = test system: Human DNA polymerases and mitochondrial function; assay: Effect on human DNA polymerases and mitochondrial function in vitro
Source text: Human DNA polymerases and mitochondrial function were not affected by L-dC in vitro. L-dC was non-cytotoxic to human peripheral blood mononuclear cells (PBMCs), bone marrow progenitor cells and numerous cell lines of human and other non-human mammalian origin.

[2] = Single-dose bioavailability of L-dC in the woodchuck; assay type: in vivo; settings: for half-life: in vivo, read-out: t1/2 of L-dC (converted); for bioavailability: po, 10 mg/kg, L-dC 10 mg/kg PO vs IV; for AUC(0-t): read-out: AUCt→24 of L-dC
Experimental: Plasma drug levels, CL, ty, and F were determined.

[3] = test system: human plasma proteins; assay type: in vitro ADME; settings: ex vivo, ultrafiltration
[4] = plasma, L-dC 10 mg/kg single IV dose, mean
[5] = plasma, L-dC 10 mg/kg single PO dose, mean

In the case of Nc1ccn([C@@H]2CC(O)[C@H](CO)O2)c(=O)n1 (stereo partly drawn) [L-dC, 2′-Deoxy-β-L-cytidine], the “effect on human DNA polymerases and mitochondrial function” value [1] is reported as “not affected”, the half-life ([2]; L-dC 10 mg/kg single IV dose, mean) is reported as 2.85 h and the half-life ([2]; L-dC 10 mg/kg single PO dose, mean) is reported as 5.22 h. The bioavailability ([2]; plasma, read-out: oral bioavailability (F), average) was 9.57%, the bioavailability ([2]; plasma, read-out: oral bioavailability, range of animals) was 5.6 to 16.9% and the Tmax ([2]; plasma, L-dC 10 mg/kg single IV dose) was 0 h. For the same compound, the Vd [2, 4] was 1.17 L/kg, the clearance [2, 4] was 6.5 mL/min/kg and the Cmax ([2]; plasma, L-dC 10 mg/kg single IV dose, mean, at 2 minutes post-dose) was 112 µM. For the same compound, the AUC(0-t) ([2]; plasma, L-dC 10 mg/kg single IV dose, n=3, t = 0.033 hours, mean) was 174 µM·h, the Cmax [2, 5] was 1.37 µM and the Tmax [2, 5] was 3 h. For the same compound, the AUC(0-t) ([2]; plasma, L-dC 10 mg/kg single PO dose, n=3, t = 0.25 hours, mean) was 11.3 µM·h and the “binding to human plasma proteins” value [3] was 19.7%.
